Consider 3 molecules from PubChem BioAssay AID588662 (The Scripps Research Institute Molecular Screening Center, 2011).

Calls of active or inactive are those of the source.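 The calls were made as follows: active = p38 protein level shifted at least 30% from solvent-only control, either down or up; inactive = shift under 30% either way.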

The test deals with Mitogen-activated protein kinase 14 (Homo sapiens) (UniProt Q16539). Description: total p38 protein level change, either direction, late-stage follow-up, counter-screen for KLF5 inhibitor project, SW620 cells, chemiluminescent western blot, powder samples (AID 588662). To be noted: 24 h, at 10 µM.
Sequence of Mitogen-activated protein kinase 14 (Homo sapiens) (Q16539 whole entry, looked up): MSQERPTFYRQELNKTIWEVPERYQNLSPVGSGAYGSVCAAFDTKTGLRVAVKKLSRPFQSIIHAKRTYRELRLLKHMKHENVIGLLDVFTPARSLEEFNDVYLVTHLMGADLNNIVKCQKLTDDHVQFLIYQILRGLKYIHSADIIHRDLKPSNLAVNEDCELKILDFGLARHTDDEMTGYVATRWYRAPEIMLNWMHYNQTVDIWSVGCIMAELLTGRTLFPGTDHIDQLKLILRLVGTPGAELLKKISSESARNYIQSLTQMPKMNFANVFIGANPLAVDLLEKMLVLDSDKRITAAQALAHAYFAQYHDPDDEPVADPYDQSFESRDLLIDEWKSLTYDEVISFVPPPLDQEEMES
`CN(C(=O)CNC(=O)/C=C/c1cccc(Cl)c1)C1CCS(=O)(=O)C1` (stereo not drawn): the inhibition is 1.69% (inactive).

As to `CN(C(=O)CNC(=O)/C=C/c1cccc(Cl)c1)C1CCS(=O)(=O)CC1`, the inhibition is -41.1%. For the molecule `CN(C(=O)COC(=O)/C=C/c1cccc([N+](=O)[O-])c1)C1CCS(=O)(=O)C1` (stereo not drawn), the inhibition was -3.03% (inactive).
